Experimental data published in US9365520B2, “Heterocyclic compound” (Takeda Pharmaceutical Company Limited, priority 2014, dated 2016).

How the values were obtained:
[1] = system: IL-17A gene expression; test: Effect on IL-23-induced cytokine expression in mice; assay type: in vivo, Balb/c mice; conditions: Mus musculus, 24 h, 30 min before and 8 hr after IL-23, ear tissue, versus the negative control group, read-out: percent inhibition of IL-17A gene expression
Method: Effect on IL-23-Induced Cytokine Expression in Mice
A mouse IL-23 solution (500 ng/10 μL, prepared by Takeda Pharmaceutical Company Limited) or PBS (10 μL, negative control group) was administered intradermally in the ear of Balb/c mice (Charles River Japan, male, 7 weeks old). Twenty-four hr after administration, the ear was resected under isoflurane anesthesia. The test compound was suspended in 0.5% methylcellulose and administered orally 30 min before and 8 hr after IL-23 administration.
RNA extraction from the ear tissue and quantitative PCR were performed as follows. Specifically, ear tissue 5 mm in diameter was punched from an area of the resected ear centering on the IL-23 injection site, and the tissue was immersed in RNAlater (QIAGEN) for at least 18 hr. The RNAlater-treated ear tissue was homogenized in 350 μL of RLT buffer (RNeasy mini kit, QIAGEN) and treated (55° C., 10 min) with Proteinase K (QIAGEN). Total RNA was then extracted according to the RNeasy mini kit protocol. The RNA thus obtained was then reverse transcribed into cDNA using the High-Capacity RNA-to-cDNA kit (Applied Biosystems), and the amount of each gene expressions was measured by real-time PCR (Viia7™, Applied Biosystems). The PCR buffer used was TaqMan Fast Advanced Master Mix (Applied Biosystems), and TaqMan Gene Expression Assays (Applied Biosystems) Mm00439618_m1 (IL-17A) and 4352341E (β-actin) were used for each gene detection. The IL-17A gene expression level was normalized to the β-actin gene expression level, and the percent inhibition of IL-17A gene expression with the test compound was then calculated.
The results (percent inhibition of IL-17A gene expression with oral administration of the test compound) measured by the above-mentioned method are shown in Table 9.

[2] = system: IL-23-induced mouse psoriasis model; test: Effect in an IL-23-induced mouse psoriasis model; assay type: in vivo, Balb/c mice; conditions: versus the negative control group
Method: Effect in an IL-23-Induced Mouse Psoriasis Model
Mouse IL-23 (500 ng/15 μL, R&D) or PBS (15 μL, negative control group) was administered intradermally in the ear of Balb/c mice (Charles River Japan, male, 7 weeks old) 5 times every other days. Seven hr after IL-23 administration at 8 days after the initial administration (final administration), the mice were anesthetized with isoflurane, and ear thickness was measured with calipers. After the ear thickness was measured, the ear was resected, tissue 8 mm in diameter was punched from an area centering on the IL-23 injection site, and the tissue was weighed. The punched ear tissue was cut in half, and one half was immersion-fixed in 10% neutral buffer formalin solution for use in histopathological evaluation. The other half was immersed in RNAlater (QIAGEN) for at least 18 hr for use in an evaluation of the IL-17A mRNA expression level. The test compound was suspended in 0.5% methylcellulose and administered orally twice daily on consecutive days from 30 min before the initial IL-23 administration to 30 min before the final IL-23 administration.
The change in ear thickness in this model was evaluated by calculating the difference in measured thickness between before IL-23 administration and 7 hr after the final IL-23 administration. In addition, the formalin-fixed tissue was embedded and sectioned, then stained with hematoxylin-eosin. The degree of acanthosis was then evaluated qualitatively by microscopy (classified with a score of 0 to 4). RNA extraction from the ear tissue and quantitative PCR were performed as follows. As described above, ear tissue treated with RNAlater (QIAGEN) was homogenized in 350 μL of RLT buffer (RNeasy mini kit, QIAGEN) and treated (55° C., 10 min) with Proteinase K (QIAGEN). Total RNA was then extracted according to the RNeasy mini kit protocol. The RNA thus obtained was reverse transcribed into cDNA using the High-Capacity RNA-to-cDNA kit (Applied Biosystems), and the expression of each gene was measured by real-time PCR (Viia7™, Applied Biosystems). The PCR buffer used was TaqMan Fast Advanced Master Mix (Applied Biosystems), and TaqMan Gene Expression Assays (Applied Biosystems) Mm00439618_ml (IL-17A) and 4352341E (β-actin) were used to detect the genes. The IL-17A gene expression level was normalized to the β-actin gene expression level, and the percent inhibition of IL-17A gene expression with the test compound was then calculated.
The results (percent inhibition of ear thickness, acanthosis score and IL-17A gene expression with oral administration of the test compound) measured by the above-mentioned method are shown in Table 10.

[3] = system: T cell-transferred mouse colitis model; test: Effect in a T cell-transferred mouse colitis model; assay type: in vivo, mice; conditions: 3 mg/kg oral twice daily; 21 days after cell transfer; versus the negative control group
From the text: Effect in a T Cell-Transferred Mouse Colitis Model
Balb/c mice (Charles River Japan, female, 8 weeks old) were euthanized, and the spleens were resected, mashed in mesh, and passed through cell strainer to prepare a suspension of splenic cells. The mononuclear cell fraction in the splenic cells was isolated by density-gradient centrifugation, and subjected to hemolysis treatment with ammonium chloride buffer solution (Immuno-Biological Laboratories, Co., Ltd.). The naive T-cells were purified using CD4+CD62L+ T Cell Isolation Kit II (Miltenyi Biotec). The naive T-cells (2×10^5 cells/mouse) were intravenously transferred into SCIDmice (CLEA Japan, female, 8 weeks old). The compound was suspended in 0.5% methyl cellulose, and the suspension was orally administered twice daily on consecutive days from the same evening of the cell transfer. The mice were blinded 20 days after the cell transfer, and the symptom of the stool on floorcloth under blind was evaluated by scores of 1 to 4 (1: normal, 2: loose stool, 3: diarrhea (formed), 4: diarrhea (unformed)) 21 days after the cell transfer. […] The large intestine was washed with saline, and the weight was measured.
The results (percent inhibition of intestinal tract weight and diarrhea score with oral administration of the test compound) measured by the above-mentioned method are shown in Table 11.

[4] = system: mouse EAE model; test: Effect in a mouse EAE model; assay type: in vivo, C57BL/6J mice; conditions: 3 mg/kg oral; integration value of the clinical score for 28 days; versus the negative control group
Method: Effect in a Mouse EAE Model
. C57BL/6J mice (10 weeks old, female, Charles River Japan) were grouped based on the body weight, and the MOG emulsion was intradermally administered at two point of the joint of dorsal hindlimb so that the dose was 100 μL/site, 200 μL/mouse. In addition, Pertussis toxin (Merck) was intraperitoneally administered twice on the sensitization day and 2 days thereafter in the dose of 400 ng/200 μL/mouse. The body weight was measured twice a week before onset and everyday (excluding holiday) after onset from the sensitization day. The clinical score was evaluated by the following standard scores of 0 to 5 (0: normal, 0.5: partial paralysis of tail, 1: complete paralysis of tail, 2: partial paralysis of hindlimb, 3: paralysis of lower body, 4: partial paralysis of forelimb, 5: paralysis of both forelimbs or death) by observation everyday (excluding holiday) after the beginning of onset.
The percent inhibition of the clinical score of the test compound administration group relative to that of the control group was calculated using integration value of the clinical score for 28 days.
The results (percent inhibition of clinical score with oral administration of the test compound) measured by the above-mentioned method are shown in Table 12.

SMILES | inhibition in vivo at 3 mg/kg ([1]; 3 mg/kg oral) [%] | percent inhibition of IL-17A expression ([2]; 3 mg/kg oral twice daily) [%] | percent inhibition of acanthosis score ([2]; 3 mg/kg oral twice daily) [%] | percent inhibition of ear thickness ([2]; 3 mg/kg oral twice daily) [%] | percent inhibition of diarrhea score [3] [%] | percent inhibition of intestinal tract weight [3] [%] | percent inhibition of clinical score [4] [%] | inhibition in vivo at 10 mg/kg ([1]; 10 mg/kg oral) [%] | percent inhibition of IL-17A expression ([2]; 1 mg/kg oral twice daily) [%] | percent inhibition of acanthosis score ([2]; 1 mg/kg oral twice daily) [%] | percent inhibition of ear thickness ([2]; 1 mg/kg oral twice daily) [%]
COc1ccc2c(n1)CCN(C(=O)[C@H]1C[C@@H](CC(=O)O)C1)[C@H]2C(=O)Nc1cc(F)c2c(c1)CCC2(C)C [Example 15, (cis-3-(((5R)-5-((7-fluoro-1,1-dimethyl-2,3-dihydro-1H-inden-5-yl)carbamoyl)-2-methoxy-7,8-dihydro-1,6-naphthyridin-6(5H)-yl)carbonyl)cyclobutyl)acetic acid] | 99 | 93 | 53 | 61 | 81 | 58 | 64 |  |  |  | 
COc1ccc2c(n1)CCN(C(=O)[C@H]1C[C@@H](C(=O)O)C1)[C@H]2C(=O)Nc1cc(F)c2c(c1)CCC2(C)C [Example 10] |  |  |  |  |  |  |  | 87 | 91 | 47 | 52
